Laboratory results: patent publication US20230024302A1, “2,3,5-TRISUBSTITUTED PYRAZOLO[1,5-A]PYRIMIDINE COMPOUNDS” (Arcus Biosciences, Inc., priority 2019, published 2023)
Where two headings read alike, the source gives them in different places.

Tests used:
PI3Kγ = target: T1, PI3Kγ (Homo sapiens, UniProt P48736); assay: PI3Kγ cellular assay in THP-1 cells (AKT pS473 AlphaLISA); assay type: cell-based
T1 construct: host or cells: THP-1
Method in brief: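 Serum-starved THP-1 cells (1.8×10^5/well, serum-free DMEM) treated with compounds from 4 nM to 30 μM in 2% DMSO, then stimulated and lysed.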

PI3Kγ (p120γ) = target: T2, PI3Kγ (p120γ) (Homo sapiens, UniProt P48736); assay: Inhibition of PI3K kinase activity (ADP Glo), PI3Kγ; settings: read-out: biochemical potency (PI3Kγ IC50)
T2 construct: purchased Promega V1761
T2 sequence (P48736 whole entry): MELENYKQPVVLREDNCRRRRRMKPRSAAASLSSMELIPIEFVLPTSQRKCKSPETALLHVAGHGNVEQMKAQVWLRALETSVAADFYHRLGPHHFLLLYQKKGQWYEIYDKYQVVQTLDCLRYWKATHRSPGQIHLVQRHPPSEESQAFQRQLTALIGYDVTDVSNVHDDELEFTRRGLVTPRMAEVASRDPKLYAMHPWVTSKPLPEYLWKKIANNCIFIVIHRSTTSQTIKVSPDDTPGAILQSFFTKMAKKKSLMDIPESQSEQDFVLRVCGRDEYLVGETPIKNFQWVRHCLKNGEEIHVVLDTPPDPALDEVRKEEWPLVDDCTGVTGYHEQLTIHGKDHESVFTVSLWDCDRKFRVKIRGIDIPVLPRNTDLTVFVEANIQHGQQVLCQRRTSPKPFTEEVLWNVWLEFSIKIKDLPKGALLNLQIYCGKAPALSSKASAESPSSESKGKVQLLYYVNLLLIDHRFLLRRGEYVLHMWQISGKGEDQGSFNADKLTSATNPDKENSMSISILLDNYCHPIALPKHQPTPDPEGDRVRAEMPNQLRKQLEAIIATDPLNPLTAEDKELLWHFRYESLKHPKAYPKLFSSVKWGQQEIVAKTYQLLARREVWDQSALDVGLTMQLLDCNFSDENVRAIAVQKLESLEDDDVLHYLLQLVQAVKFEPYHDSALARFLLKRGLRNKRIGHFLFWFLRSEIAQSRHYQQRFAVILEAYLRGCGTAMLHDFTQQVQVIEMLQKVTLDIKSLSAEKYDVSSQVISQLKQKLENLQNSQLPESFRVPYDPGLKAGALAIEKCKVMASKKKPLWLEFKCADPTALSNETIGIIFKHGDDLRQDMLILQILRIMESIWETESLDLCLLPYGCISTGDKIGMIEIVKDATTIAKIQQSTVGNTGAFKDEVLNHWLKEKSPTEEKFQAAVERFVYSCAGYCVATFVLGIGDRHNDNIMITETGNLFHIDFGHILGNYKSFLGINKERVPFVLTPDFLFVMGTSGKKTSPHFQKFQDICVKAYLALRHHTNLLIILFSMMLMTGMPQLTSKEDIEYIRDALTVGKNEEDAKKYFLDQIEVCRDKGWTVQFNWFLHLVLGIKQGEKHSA
Method in brief: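 Recombinant p120γ (8 nM, 2× stock) was preincubated with compound for 1 h at rt in HEPES pH 7.4, NaCl, MgCl2 and 0.05% BSA. Reaction was started with PIP2 (0.1 mg/ml, 2×) and ATP (50 μM, 2×) and ran 60 min at rt. ADP formed was read by ADP-Glo luminescence, and IC50 came from a 4-parameter fit.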

[1] = Table 2, rhMCP-1 stimulated AKT pS473, read-out: cellular potency (PI3Kγ IC50)
[2] = Table 3, rhMCP-1 stimulated AKT pS473, read-out: cellular potency (PI3Kγ IC50)
[3] = AKT pS473, read-out: cellular potency (PI3Kγ IC50)

T1 sequence (P48736 whole entry): as above

SMILES	IC50 (PI3Kγ; [2]) [nM]	IC50 (PI3Kγ (p120γ); Table 3, p120γ) [nM]	further results
Cc1cc(-c2ccn3nc(N)c(C(=O)NC4CC4)c3n2)cc2c1C(=O)N([C@H]1CCC[C@H](O)C1)C2 [Example 327]	–	–	IC50 (PI3Kγ; [1]): 100 to 1000 nM; IC50 (PI3Kγ (p120γ); Table 2, p120γ): < 100 nM
Cc1cc(-c2ccn3nc(N)c(C(=O)NC4CC4)c3n2)cc2c1C(=O)N([C@@H]1CCC[C@@H](O)C1)C2 [Example 328]	–	–	IC50 (PI3Kγ; [1]): 100 to 1000 nM; IC50 (PI3Kγ (p120γ); Table 2, p120γ): < 100 nM
Cc1cc(-c2ccn3nc(N)c(C(=O)NC(C)CO)c3n2)cc2c1C(=O)N([C@H]1CCC[C@H](O)C1)C2 (some centres unmarked) [Example 329]	–	–	IC50 (PI3Kγ; [1]): > 1000 nM; IC50 (PI3Kγ (p120γ); Table 2, p120γ): < 100 nM
Cc1cc(-c2ccn3nc(N)c(C(=O)NC(C)CO)c3n2)cc2c1C(=O)N([C@H](C)c1ccncc1)C2 (some centres unmarked) [Example 330]	–	–	IC50 (PI3Kγ; [1]): > 1000 nM; IC50 (PI3Kγ (p120γ); Table 2, p120γ): < 100 nM
Cc1cc(-c2ccn3nc(N)c(C(=O)NC4CC4)c3n2)cc2c1C(=O)N([C@H](C)c1ccncc1)C2 [Example 331]	–	–	IC50 (PI3Kγ; [1]): > 1000 nM; IC50 (PI3Kγ (p120γ); Table 2, p120γ): < 100 nM
Cc1cc(-c2ccn3nc(N)c(C(=O)NC(C)CO)c3n2)cc2c1C(=O)N([C@H](C)c1cccnc1)C2 (some centres unmarked) [Example 332]	–	–	IC50 (PI3Kγ; [1]): > 1000 nM; IC50 (PI3Kγ (p120γ); Table 2, p120γ): < 100 nM
Cc1cc(-c2ccn3nc(N)c(C(=O)NC4CC4)c3n2)cc2c1C(=O)N([C@H](C)c1cccnc1)C2 [Example 333]	–	–	IC50 (PI3Kγ; [1]): > 1000 nM; IC50 (PI3Kγ (p120γ); Table 2, p120γ): < 100 nM
CC(=O)N1CC(NC(=O)c2c(N)nn3ccc(-c4cc5c(c(C(F)(F)F)c4)C(=O)N([C@@H](C)C4CC4)C5)nc23)C1 [Example 334]	100 to 1000	< 100	–
C[C@@H](C1CC1)N1Cc2cc(-c3ccn4nc(N)c(C(=O)NC(C)(C)CO)c4n3)cc(C(F)(F)F)c2C1=O [Example 335]	100 to 1000	< 100	–
C[C@@H](C1CC1)N1Cc2cc(-c3ccn4nc(N)c(C(=O)NCCCS(C)(=O)=O)c4n3)cc(C(F)(F)F)c2C1=O [Example 336]	100 to 1000	< 100	–
C[C@@H](C1CC1)N1Cc2cc(-c3ccn4nc(N)c(C(=O)NCCS(C)(=O)=O)c4n3)cc(C(F)(F)F)c2C1=O [Example 337]	100 to 1000	< 100	–
C[C@@H](C1CC1)N1Cc2cc(-c3ccn4nc(N)c(C(=O)NC5(CO)COC5)c4n3)cc(C(F)(F)F)c2C1=O [Example 338]	100 to 1000	< 100	–
COC[C@@H](C)NC(=O)c1c(N)nn2ccc(-c3cc4c(c(C(F)(F)F)c3)C(=O)N([C@@H](C)C3CC3)C4)nc12 [Example 339]	100 to 1000	< 100	–
Nc1nn2ccc(-c3cc4c(c(C(F)(F)F)c3)C(=O)N([C@@H](CO)C3CC3)C4)nc2c1C(=O)NC1CC1 [Example 340]	100 to 1000	< 100	–
C[C@@H](O)CCNC(=O)c1c(N)nn2ccc(-c3cc4c(c(C(F)(F)F)c3)C(=O)N([C@@H](C)C3CC3)C4)nc12 [Example 341]	100 to 1000	< 100	–
C[C@@H](C1CC1)N1Cc2cc(-c3ccn4nc(N)c(C(=O)NC5(CO)CC5)c4n3)cc(C(F)(F)F)c2C1=O [Example 342]	100 to 1000	< 100	–
CC[C@H](C)NC(=O)c1c(N)nn2ccc(-c3cc4c(c(C(F)(F)F)c3)C(=O)N([C@@H](C)C3CC3)C4)nc12 [Example 343]	100 to 1000	< 100	–
C[C@@H](C1CC1)N1Cc2cc(-c3ccn4nc(N)c(C(=O)NC[C@@H](O)CO)c4n3)cc(C(F)(F)F)c2C1=O [Example 344]	100 to 1000	< 100	–
C[C@@H](C1CC1)N1Cc2cc(-c3ccn4nc(N)c(C(=O)N[C@H]5CC[C@@](O)(C(F)(F)F)CC5)c4n3)cc(C(F)(F)F)c2C1=O [Example 345]	100 to 1000	< 100	–
C[C@H](O)CCNC(=O)c1c(N)nn2ccc(-c3cc4c(c(C(F)(F)F)c3)C(=O)N([C@@H](C)C3CC3)C4)nc12 [Example 346]	100 to 1000	< 100	–
C[C@@H](C1CC1)N1Cc2cc(-c3ccn4nc(N)c(C(=O)NC5CCS(=O)(=O)CC5)c4n3)cc(C(F)(F)F)c2C1=O [Example 347]	100 to 1000	< 100	–
CC(CO)NC(=O)c1c(N)nn2ccc(-c3cc(F)c4c(c3)CN([C@@H](C)C3CC3)C4=O)nc12 (some centres unmarked) [Example 369]	–	–	IC50 (PI3Kγ; [3]): 100 to 1000 nM; IC50 (PI3Kγ (p120γ)): < 100 nM
C[C@@H](C1CC1)N1Cc2cc(-c3ccn4nc(N)c(C(=O)NC5CC5)c4n3)cc(F)c2C1=O [Example 370]	–	–	IC50 (PI3Kγ; [3]): 100 to 1000 nM; IC50 (PI3Kγ (p120γ)): < 100 nM
C[C@@H](C1CC1)N1Cc2cc(-c3ccn4nc(N)c(C(=O)Nc5ccc(=O)[nH]c5)c4n3)cc(NS(C)(=O)=O)c2C1=O [Example 371]	–	–	IC50 (PI3Kγ; [3]): 100 to 1000 nM; IC50 (PI3Kγ (p120γ)): < 100 nM
C[C@@H](C1CC1)N1Cc2cc(-c3ccn4nc(N)c(C(=O)N[C@H]5CCNC5=O)c4n3)cc(NS(C)(=O)=O)c2C1=O [Example 372]	–	–	IC50 (PI3Kγ; [3]): 100 to 1000 nM; IC50 (PI3Kγ (p120γ)): < 100 nM
C[C@@H](C1CC1)N1Cc2cc(-c3ccn4nc(N)c(C(=O)NC(C)(C)C(N)=O)c4n3)cc(NS(C)(=O)=O)c2C1=O [Example 373]	–	–	IC50 (PI3Kγ; [3]): 100 to 1000 nM; IC50 (PI3Kγ (p120γ)): < 100 nM
C[C@@H](C1CC1)N1Cc2cc(-c3ccn4nc(N)c(C(=O)N[C@H]5CNC(=O)C5)c4n3)cc(NS(C)(=O)=O)c2C1=O [Example 374]	–	–	IC50 (PI3Kγ; [3]): 100 to 1000 nM; IC50 (PI3Kγ (p120γ)): < 100 nM
COC(=O)c1cc(NC(=O)c2c(N)nn3ccc(-c4cc5c(c(NS(C)(=O)=O)c4)C(=O)N([C@@H](C)C4CC4)C5)nc23)ccn1 [Example 375]	–	–	IC50 (PI3Kγ; [3]): 100 to 1000 nM; IC50 (PI3Kγ (p120γ)): < 100 nM

Further lines, with some results ahead:

IC50 (PI3Kγ; [2]) [nM]	IC50 (PI3Kγ (p120γ); Table 3, p120γ) [nM]	SMILES	further results
100 to 1000	< 100	C[C@@H](C1CC1)N1Cc2cc(-c3ccn4nc(N)c(C(=O)NC[C@H](O)CO)c4n3)cc(C(F)(F)F)c2C1=O [Example 348]	–
100 to 1000	< 100	C[C@@H](C1CC1)N1Cc2cc(-c3ccn4nc(N)c(C(=O)NC5CC5)c4n3)cc(C(F)(F)F)c2C1=O [Example 349]	–
100 to 1000	< 100	C[C@@H](C1CC1)N1Cc2cc(-c3ccn4nc(N)c(C(=O)Nc5ccnc(C#N)c5)c4n3)cc(C(F)(F)F)c2C1=O [Example 350]	–
100 to 1000	< 100	C[C@@H](C1CC1)N1Cc2cc(-c3ccn4nc(N)c(C(=O)Nc5cncc(F)c5)c4n3)cc(C(F)(F)F)c2C1=O [Example 351]	–
100 to 1000	< 100	C[C@@H](C1CC1)N1Cc2cc(-c3ccn4nc(N)c(C(=O)NCCNS(C)(=O)=O)c4n3)cc(C(F)(F)F)c2C1=O [Example 352]	–
100 to 1000	< 100	C[C@@H](C1CC1)N1Cc2cc(-c3ccn4nc(N)c(C(=O)N[C@@H](CO)C5CC5)c4n3)cc(C(F)(F)F)c2C1=O [Example 353]	–
100 to 1000	< 100	C[C@@H](C1CC1)N1Cc2cc(-c3ccn4nc(N)c(C(=O)Nc5ccc(CC(F)(F)F)nc5)c4n3)cc(C(F)(F)F)c2C1=O [Example 354]	–
100 to 1000	< 100	COc1cncc(NC(=O)c2c(N)nn3ccc(-c4cc5c(c(C(F)(F)F)c4)C(=O)N([C@@H](C)C4CC4)C5)nc23)c1 [Example 355]	–
100 to 1000	< 100	C[C@@H](C1CC1)N1Cc2cc(-c3ccn4nc(N)c(C(=O)N[C@H]5CCCNC5)c4n3)cc(C(F)(F)F)c2C1=O [Example 356]	–
> 1000	< 100	C[C@@H](C1CC1)N1Cc2cc(-c3ccn4nc(N)c(C(=O)N[C@H]5CNC[C@H]5O)c4n3)cc(C(F)(F)F)c2C1=O [Example 357]	–
100 to 1000	< 100	C[C@@H](C1CC1)N1Cc2cc(-c3ccn4nc(N)c(C(=O)N[C@@H]5CCC[C@H](N)C5)c4n3)cc(C(F)(F)F)c2C1=O [Example 358]	–
> 1000	< 100	C[C@@H](C1CC1)N1Cc2cc(-c3ccn4nc(N)c(C(=O)N[C@H]5CNC[C@@H]5O)c4n3)cc(C(F)(F)F)c2C1=O [Example 359]	–
> 1000	< 100	C[C@@H](C1CC1)N1Cc2cc(-c3ccn4nc(N)c(C(=O)N[C@@H]5CNC[C@H]5O)c4n3)cc(C(F)(F)F)c2C1=O [Example 360]	–
100 to 1000	< 100	C[C@@H](C1CC1)N1Cc2cc(-c3ccn4nc(N)c(C(=O)N[C@@H](CO)C(F)(F)F)c4n3)cc(C(F)(F)F)c2C1=O [Example 361]	–
100 to 1000	< 100	C[C@@H](C1CC1)N1Cc2cc(-c3ccn4nc(N)c(C(=O)N[C@@H]5CCC[C@H](N(C)C)C5)c4n3)cc(C(F)(F)F)c2C1=O [Example 362]	–
> 1000	< 100	C[C@@H](C1CC1)N1Cc2cc(-c3ccn4nc(N)c(C(=O)Nc5ccccc5)c4n3)cc(C(F)(F)F)c2C1=O [Example 363]	–
100 to 1000	< 100	COCC(NC(=O)c1c(N)nn2ccc(-c3cc4c(c(C(F)(F)F)c3)C(=O)N([C@@H](C)C3CC3)C4)nc12)C(C)C (some centres unmarked) [Example 364]	–
100 to 1000	< 100	C[C@@H](C1CC1)N1Cc2cc(-c3ccn4nc(N)c(C(=O)NC5CC5c5ccccc5)c4n3)cc(C(F)(F)F)c2C1=O (some centres unmarked) [Example 365]	–
> 1000	< 100	C[C@@H](C1CC1)N1Cc2cc(-c3ccn4nc(N)c(C(=O)N[C@H]5CCC[C@@H](N)C5)c4n3)cc(C(F)(F)F)c2C1=O [Example 366]	–
> 1000	< 100	C[C@@H](C1CC1)N1Cc2cc(-c3ccn4nc(N)c(C(=O)N[C@H]5CCC[C@H](N)C5)c4n3)cc(C(F)(F)F)c2C1=O [Example 367]	–
100 to 1000	< 100	C[C@@H](C1CC1)N1Cc2cc(-c3ccn4nc(N)c(C(=O)N[C@H]5CC[C@H](N)CC5)c4n3)cc(C(F)(F)F)c2C1=O [Example 368]	–
